Laboratory results from patent US12162890B2 (Novartis AG, priority 2015, dated 2024).

Biological target: HEK293 cells with stable expression of the GRIN1 gene and tetracycline-inducible expression of the GRIN2B gene (NMDA receptor, NR2B) (Homo sapiens, UniProt Q13224)
Experiment: Fluo-8 Ca2+ flux assay: reversal of Ro 25-6981-mediated suppression of the Ca2+ response to co-agonist (glutamate/glycine); further: test concentration or dose not given here
Assay type: cell-based
Conditions: reversal of the Ro 25-6981 suppression of the Ca2+ response to co-agonist (glutamate/glycine)

Sequence of HEK293 cells with stable expression of the GRIN1 gene and tetracycline-inducible expression of the GRIN2B gene (NMDA receptor, NR2B) (Q13224 27-1484, other chains not shown): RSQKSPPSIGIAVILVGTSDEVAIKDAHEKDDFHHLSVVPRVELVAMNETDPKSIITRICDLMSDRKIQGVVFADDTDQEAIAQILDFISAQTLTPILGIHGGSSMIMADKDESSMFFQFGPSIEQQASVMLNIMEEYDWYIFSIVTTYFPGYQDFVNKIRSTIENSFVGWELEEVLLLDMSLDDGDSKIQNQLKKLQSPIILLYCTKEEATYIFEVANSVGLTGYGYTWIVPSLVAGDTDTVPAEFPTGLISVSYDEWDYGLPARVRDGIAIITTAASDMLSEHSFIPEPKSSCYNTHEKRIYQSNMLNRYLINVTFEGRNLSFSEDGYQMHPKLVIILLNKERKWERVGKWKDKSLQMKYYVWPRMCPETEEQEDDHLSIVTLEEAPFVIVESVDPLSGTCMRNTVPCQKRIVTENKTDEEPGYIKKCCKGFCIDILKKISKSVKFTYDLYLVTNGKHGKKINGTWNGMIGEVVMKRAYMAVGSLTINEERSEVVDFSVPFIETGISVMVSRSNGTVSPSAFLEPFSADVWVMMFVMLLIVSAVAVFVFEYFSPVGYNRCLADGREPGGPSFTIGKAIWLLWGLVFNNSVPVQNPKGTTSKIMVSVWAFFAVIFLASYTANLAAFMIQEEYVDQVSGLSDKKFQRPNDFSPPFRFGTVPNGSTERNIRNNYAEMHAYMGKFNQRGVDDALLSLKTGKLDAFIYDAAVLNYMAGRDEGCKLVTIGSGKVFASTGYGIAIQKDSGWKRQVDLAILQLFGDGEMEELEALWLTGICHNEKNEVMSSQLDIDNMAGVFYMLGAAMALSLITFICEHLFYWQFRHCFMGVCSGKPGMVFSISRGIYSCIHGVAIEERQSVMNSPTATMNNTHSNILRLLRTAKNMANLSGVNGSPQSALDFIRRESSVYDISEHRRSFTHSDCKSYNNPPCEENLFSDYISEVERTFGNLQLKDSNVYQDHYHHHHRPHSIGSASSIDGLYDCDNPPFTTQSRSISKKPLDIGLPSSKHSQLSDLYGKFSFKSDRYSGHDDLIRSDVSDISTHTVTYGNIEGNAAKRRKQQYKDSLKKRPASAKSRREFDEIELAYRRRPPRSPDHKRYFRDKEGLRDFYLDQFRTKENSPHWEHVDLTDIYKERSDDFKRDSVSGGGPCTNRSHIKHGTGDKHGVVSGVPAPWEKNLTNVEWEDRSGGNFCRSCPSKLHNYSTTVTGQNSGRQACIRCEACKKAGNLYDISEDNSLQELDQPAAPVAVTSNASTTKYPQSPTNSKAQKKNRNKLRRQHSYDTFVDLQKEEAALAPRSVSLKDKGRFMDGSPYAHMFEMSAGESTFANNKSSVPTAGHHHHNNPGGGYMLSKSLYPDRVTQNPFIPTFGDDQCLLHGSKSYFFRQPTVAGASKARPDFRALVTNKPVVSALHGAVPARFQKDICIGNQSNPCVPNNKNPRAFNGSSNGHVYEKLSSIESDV

| Structure (SMILES) | Response Recovered (%) |
| --- | --- |
| O=C(Cn1ccc2c(c(-c3ccc(F)c(C(F)(F)F)c3)cn2CCF)c1=O)N1CCC(F)C1 (stereo not drawn) [Example 252, 3-(4-fluoro-3-(trifluoromethyl)phenyl)-1-(2-fluoroethyl)-5-(2-(3-fluoropyrrolidin-1-yl)-2-oxoethyl)-1H-pyrrolo[3,2-c]pyridin-4(5H)-one] | 96 |
| O=C(Cn1ccc2c(c(-c3ccc(F)c(Cl)c3)cn2CCF)c1=O)N1CCC(F)C1 (stereo not drawn) [Example 253, 3-(3-chloro-4-fluorophenyl)-1-(2-fluoroethyl)-5-(2-(3-fluorpyrrolidin-1-yl)-2-oxoethyl)-1H-pyrrolo[3,2-c]pyridin-4(5H)-one] | 66 |
| COCn1cc(-c2ccc(F)c(Cl)c2)c2c(=O)n(CC(=O)N3CC(C)(F)C3)ccc21 [Example 254, 3-(3-chloro-4-fluorophenyl)-5-(2-(3-fluoro-3-methylazetidin-1-yl)-2-oxoethyl)-1-(methoxymethyl)-1,5-dihydro-4H-pyrrolo[3,2-c]pyridin-4-one] | 140 |
| NC(=O)Cn1ccc2[nH]cc(-c3ccc(F)c(Cl)c3)c2c1=O [Example 255, 2-(3-(3-chloro-4-fluorophenyl)-4-oxo-1H-pyrrolo[3,2-c]pyridin-5(4H)-yl)acetamide] | −1 |
| O=C(Cn1ccc2c(c(-c3ccc(F)c(C(F)(F)F)c3)cn2CCO)c1=O)N1CCC(F)C1 (stereo not drawn) [Example 256, 3-(4-fluoro-3-(trifluoromethyl)phenyl)-5-(2-(3-fluoropyrrolidin-1-yl)-2-oxoethyl)-1-(2-hydroxyethyl)-1H-pyrrolo[3,2-c]pyridin-4(5H)-one] | 54 |
| CC(C)(O)Cn1cc(-c2ccc(F)c(C(F)(F)F)c2)c2c(=O)n(CC(=O)N3CCC(F)C3)ccc21 (stereo not drawn) [Example 257, 3-(4-fluoro-3-(trifluoromethyl)phenyl)-5-(2-(3-fluoropyrrolidin-1-yl)-2-oxoethyl)-1-(2-hydroxy-2-methylpropyl)-1H-pyrrolo[3,2-c]pyridin-4(5H)-one] | 20 |
| CC(C)(O)Cn1cc(-c2ccc(F)c(C(F)(F)F)c2)c2c(=O)n(CC(=O)N3CC(F)C(F)C3)ccc21 (stereo not drawn) [Example 258, 5-(2-(3,4-difluoropyrrolidin-1-yl)-2-oxoethyl)-3-(4-fluoro-3-(trifluoromethyl)phenyl)-1-(2-hydroxy-2-methylpropyl)-1H-pyrrolo[3,2-c]pyridin-4(5H)-one] | 13 |
| CC(C)(O)Cn1cc(-c2ccc(F)c(Cl)c2)c2c(=O)n(CC(=O)N3CCC(F)C3)ccc21 (stereo not drawn) [Example 259, 3-(3-chloro-4-fluorophenyl)-5-(2-(3-fluoropyrrolidin-1-yl)-2-oxoethyl)-1-(2-hydroxy-2-methylpropyl)-1H-pyrrolo[3,2-c]pyridin-4(5H)-one] | 35 |
| O=C(Cn1ccc2c(c(-c3ccc(F)c(C(F)(F)F)c3)cn2CO)c1=O)N1CCC(F)C1 (stereo not drawn) [Example 260, 3-(4-fluoro-3-(trifluoromethyl)phenyl)-5-(2-(3-fluoropyrrolidin-1-yl)-2-oxoethyl)-1-(hydroxymethyl)-1H-pyrrolo[3,2-c]pyridin-4(5H)-one] | 68 |
| O=C(Cn1ccc2c(c(-c3ccc(F)c(Cl)c3)cn2C2COC2)c1=O)N1CCC(F)C1 (stereo not drawn) [Example 261, 3-(3-chloro-4-fluorophenyl)-5-(2-(3-fluoropyrrolidin-1-yl)-2-oxoethyl)-1-(oxetan-3-yl)-1H-pyrrolo[3,2-c]pyridin-4(5H)-one] | 29 |
| O=C(Cn1ccc2c(c(-c3ccc(F)c(C(F)(F)F)c3)cn2-c2ccnnc2)c1=O)N1CCC(F)C1 (stereo not drawn) [Example 262, 3-(4-fluoro-3-(trifluoromethyl)-phenyl)-5-(2-(3-fluoropyrrolidin-1-yl)-2-oxoethyl)-1-(pyridazin-4-yl)-1H-pyrrolo[3,2-c]pyridin-4(5H)-one] | 44 |
| Cc1nnc(-n2cc(-c3ccc(F)c(C(F)(F)F)c3)c3c(=O)n(CC(=O)N4CCC(F)C4)ccc32)o1 (stereo not drawn) [Example 263, 3-(4-fluoro-3-(trifluoromethyl)phenyl)-5-(2-(3-fluoropyrrolidin-1-yl)-2-oxoethyl)-1-(5-methyl-1,3,4-oxadiazol-2-yl)-1H-pyrrolo[3,2-c]pyridin-4(5H)-one] | 72 |
| Cc1nnc(-n2cc(-c3ccc(F)c(Cl)c3)c3c(=O)n(CC(=O)N4CCC(F)C4)ccc32)o1 (stereo not drawn) [Example 264, 3-(3-chloro-4-fluorophenyl)-5-(2-(3-fluoropyrrolidin-1-yl)-2-oxoethyl)-1-(5-methyl-1,3,4-oxadiazol-2-yl)-1H-pyrrolo[3,2-c]pyridin-4(5H)-one] | 49 |
| O=C(Cn1ccc2c(c(-c3ccc(F)c(C(F)(F)F)c3)cn2C2COC2)c1=O)N1CCC(F)C1 (stereo not drawn) [Example 265, 3-(4-fluoro-3-(trifluoromethyl)phenyl)-5-(2-(3-fluoropyrrolidin-1-yl)-2-oxoethyl)-1-(oxetan-3-yl)-1H-pyrrolo[3,2-c]pyridin-4(5H)-one] | 61 |
| Cn1cnc(-n2cc(-c3ccc(F)c(C(F)(F)F)c3)c3c(=O)n(CC(=O)N4CCC(F)C4)ccc32)n1 (stereo not drawn) [Example 266, 3-(4-fluoro-3-(trifluoromethyl)phenyl)-5-(2-(3-fluoropyrrolidin-1-yl)-2-oxoethyl)-1-(1-methyl-1H-1,2,4-triazol-3-yl)-1H-pyrrolo[3,2-c]pyridin-4(5H)-one] | 95 |
| Cn1cc(-n2cc(-c3ccc(F)c(Cl)c3)c3c(=O)n(CC(=O)N4CCC(F)C4)ccc32)nn1 (stereo not drawn) [Example 267, 3-(3-chloro-4-fluorophenyl)-5-(2-(3-fluoropyrrolidin-1-yl)-2-oxoethyl)-1-(1-methyl-1H-1,2,3-triazol-4-yl)-1H-pyrrolo[3,2-c]pyridin-4(5H)-one] | 27 |
| Cn1cnc(-n2cc(-c3ccc(F)c(C(F)(F)F)c3)c3c(=O)n(CC(=O)N4CC(C)(F)C4)ccc32)n1 [Example 268, 3-(4-fluoro-3-(trifluoromethyl)phenyl)-5-(2-(3-fluoro-3-methylazetidin-1-yl)-2-oxoethyl)-1-(1-methyl-1H-1,2,4-triazol-3-yl)-1H-pyrrolo[3,2-c]pyridin-4(5H)-one] | 52 |
| Cn1cnc(-n2cc(-c3ccc(F)c(Cl)c3)c3c(=O)n(CC(=O)N4CC(C)(F)C4)ccc32)n1 [Example 269, 3-(3-chloro-4-fluorophenyl)-5-(2-(3-fluoro-3-methylazetidin-1-yl)-2-oxoethyl)-1-(1-methyl-1H-1,2,4-triazol-3-yl)-1H-pyrrolo[3,2-c]pyridin-4(5H)-one] | 130 |
| Cn1cnc(-n2cc(-c3ccc(Cl)c(Cl)c3)c3c(=O)n(CC(=O)N4CC(C)(F)C4)ccc32)n1 [Example 270, 3-(3,4-dichlorophenyl)-5-(2-(3-fluoro-3-methylazetidin-1-yl)-2-oxoethyl)-1-(1-methyl-1H-1,2,4-triazol-3-yl)-1H-pyrrolo[3,2-c]pyridin-4(5H)-one] | 130 |
| Cn1cc(-n2cc(-c3ccc(F)c(Cl)c3)c3c(=O)n(CC(=O)N4CC(C)(F)C4)ccc32)nn1 [Example 271, 3-(3-chloro-4-fluorophenyl)-5-(2-(3-fluoro-3-methylazetidin-1-yl)-2-oxoethyl)-1-(1-methyl-1H-1,2,3-triazol-4-yl)-1H-pyrrolo[3,2-c]pyridin-4(5H)-one] | 140 |
| CCn1cc(-c2ccc(Cl)c(Cl)c2)c2c(=O)n(CC(=O)N3CCC(F)C3)ccc21 (stereo not drawn) [Example 272, 3-(3,4-dichlorophenyl)-1-ethyl-5-(2-(3-fluoropyrrolidin-1-yl)-2-oxoethyl)-1H-pyrrolo[3,2-c]pyridin-4(5H)-one] | 33 |
| O=C(Cn1ccc2c(c(-c3ccc(Cl)c(Cl)c3)cn2CCF)c1=O)N1CCC(F)C1 (stereo not drawn) [Example 273, 3-(3,4-dichlorophenyl)-1-(2-fluoroethyl)-5-[2-(3-fluoropyrrolidin-1-yl)-2-oxoethyl]-1H,4H,5H-pyrrolo[3,2-c]pyridin-4-one] | 93 |
| O=C(Cn1ccc2c(c(-c3ccc(Cl)c(Cl)c3)cn2CC(F)(F)F)c1=O)N1CCC(F)C1 (stereo not drawn) [Example 275, 3-(3,4-dichlorophenyl)-5-(2-(3-fluoropyrrolidin-1-yl)-2-oxoethyl)-1-(2,2,2-trifluoroethyl)-1H-pyrrolo[3,2-c]pyridin-4(5H)-one] | 100 |
| O=C(Cn1ccc2c(c(-c3ccc(F)c(C(F)(F)F)c3)cn2CC(F)F)c1=O)N1CCC(F)C1 (stereo not drawn) [Example 279, 1-(2,2-difluoroethyl)-3-(4-fluoro-3-(trifluoromethyl)phenyl)-5-(2-(3-fluoropyrrolidin-1-yl)-2-oxoethyl)-1H-pyrrolo[3,2-c]pyridin-4(5H)-one] | 71 |
| CC1(F)CN(C(=O)Cn2ccc3c(c(-c4ccc(F)c(Cl)c4)cn3CC(F)(F)F)c2=O)C1 [Example 280, 3-(3-chloro-4-fluorophenyl)-5-(2-(3-fluoro-3-methylazetidin-1-yl)-2-oxoethyl)-1-(2,2,2-trifluoroethyl)-1H-pyrrolo[3,2-c]pyridin-4(5H)-one] | 73 |
| CC1(F)CN(C(=O)Cn2ccc3c(c(-c4ccc(F)c(Cl)c4)cn3CCF)c2=O)C1 [Example 281, 3-(3-chloro-4-fluorophenyl)-5-(2-(3-fluoro-3-methylazetidin-1-yl)-2-oxoethyl)-1-(2-fluoroethyl)-1H-pyrrolo[3,2-c]pyridin-4(5H)-one] | 150 |
| CC1(F)CN(C(=O)Cn2ccc3c(c(-c4ccc(F)c(Cl)c4)cn3C3COC3)c2=O)C1 [Example 282, 3-(3-chloro-4-fluorophenyl)-5-(2-(3-fluoro-3-methylazetidin-1-yl)-2-oxoethyl)-1-(oxetan-3-yl)-1,5-dihydro-4H-pyrrolo[3,2-c]pyridin-4-one] | 120 |
